In patent publication US20250099478A1, “PLASMA KALLIKREIN INHIBITORS” (Merck Sharp & Dohme LLC, priority 2022, published 2025) one finds IC50 data, which are given here for 28 compounds.

The target of one assay is T1, Human plasma kallikrein (Homo sapiens, UniProt P03952).
T1 construct: yields a heavy chain (371 amino acids) and a light chain (248 amino acids); purchased Enzyme Research Laboratories
Briefly: Plasma Kallikrein Assay. The conditions noted are these: purified Human plasma kallikrein 0.5 nM, substrate Acetyl-K-P-R-AFC; read-out: PKal IC50. In kind it is biochemical. In short, it runs like this:
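Purified human plasma kallikrein (0.5 nM) hydrolysing fluorogenic Acetyl-K-P-R-AFC ([…]) in 50 mM HEPES pH 7.4, 150 mM NaCl, 5 mM CaCl2, 0.1% PEG 8000, at rt or 37 °C after enzyme–inhibitor equilibration. IC50 from four-parameter logistic fit; Ki via Cheng–Prusoff.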

In a further assay the target is T2, human factor XIa (Homo sapiens, UniProt P03951).
T2 construct: with human (0.04 nM) factor XIa
Briefly: Factor XIa Assay. It is filed as biochemical. Conditions: human factor XIa 0.04 nM, substrate GPR-AFC, 25° C. The protocol: The effectiveness of a compound of the present invention as an inhibitor of Coagulation factor XIa can be determined using a relevant purified serine protease, and an appropriate synthetic substrate. The rate of hydrolysis of the chromogenic or fluorogenic substrate by the relevant serine protease was measured both in the absence and presence of compounds of the present invention. Assays were conducted at rt or at 37° C. […] A decrease in the rate of fluorescence change in the presence of inhibitor is indicative of enzyme inhibition. Such methods are known to one skilled in the art. The results of this assay are expressed as the half-maximal inhibitory concentrations (IC50), or the inhibitory constant, Ki.
Compounds were pre-incubated for 30 min at 25° C. with human (0.04 nM) factor XIa in 50 mM HEPES buffer with 150 mM sodium chloride, 5 mM calcium chloride, 0.1% PEG 8000, pH 7.4. factor XIa enzymatic activity was determined by addition of the substrate glycine-proline-arginine-7-amido-4-trifluoromethylcoumarin (GPR-AFC) and measurement of the fluorescence at 400/505 nm after a 60 min incubation at 25° C. The % inhibition for each data point was calculated from the data and analyzed using the log (inhibitor) vs. response four parameters equation to determine the half-maximal inhibitory concentrations (IC50). The IC50 were converted to equilibrium inhibitory constants (Ki) using the Cheng-Prusoff equation.

T1 sequence (P03952 391-638 limits assumed): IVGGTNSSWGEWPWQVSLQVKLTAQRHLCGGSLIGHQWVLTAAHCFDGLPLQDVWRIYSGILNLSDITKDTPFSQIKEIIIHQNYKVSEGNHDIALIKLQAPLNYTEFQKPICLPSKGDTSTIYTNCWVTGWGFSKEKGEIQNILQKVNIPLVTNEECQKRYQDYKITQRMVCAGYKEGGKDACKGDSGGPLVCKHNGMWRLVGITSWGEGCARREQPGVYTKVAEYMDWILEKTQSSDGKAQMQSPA
T1 sequence (P03952 20-390 partner limits assumed): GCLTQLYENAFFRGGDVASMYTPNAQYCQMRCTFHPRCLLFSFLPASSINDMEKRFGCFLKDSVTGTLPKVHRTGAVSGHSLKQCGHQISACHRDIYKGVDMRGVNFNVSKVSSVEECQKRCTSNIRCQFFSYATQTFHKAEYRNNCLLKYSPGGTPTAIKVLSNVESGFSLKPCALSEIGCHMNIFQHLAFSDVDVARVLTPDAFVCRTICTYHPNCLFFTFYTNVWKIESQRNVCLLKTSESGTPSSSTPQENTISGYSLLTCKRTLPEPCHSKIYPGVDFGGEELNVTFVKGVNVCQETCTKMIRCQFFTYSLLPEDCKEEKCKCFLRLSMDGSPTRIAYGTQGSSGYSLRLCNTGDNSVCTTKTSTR
T2 sequence (P03951 388-625 limits assumed): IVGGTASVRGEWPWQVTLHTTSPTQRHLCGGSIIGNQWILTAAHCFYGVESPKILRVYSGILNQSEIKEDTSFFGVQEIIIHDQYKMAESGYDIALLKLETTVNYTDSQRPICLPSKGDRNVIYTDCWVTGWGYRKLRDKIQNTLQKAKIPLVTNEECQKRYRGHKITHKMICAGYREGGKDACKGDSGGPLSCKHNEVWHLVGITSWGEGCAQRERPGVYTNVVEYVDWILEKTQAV
T2 sequence (P03951 19-387 partner limits assumed): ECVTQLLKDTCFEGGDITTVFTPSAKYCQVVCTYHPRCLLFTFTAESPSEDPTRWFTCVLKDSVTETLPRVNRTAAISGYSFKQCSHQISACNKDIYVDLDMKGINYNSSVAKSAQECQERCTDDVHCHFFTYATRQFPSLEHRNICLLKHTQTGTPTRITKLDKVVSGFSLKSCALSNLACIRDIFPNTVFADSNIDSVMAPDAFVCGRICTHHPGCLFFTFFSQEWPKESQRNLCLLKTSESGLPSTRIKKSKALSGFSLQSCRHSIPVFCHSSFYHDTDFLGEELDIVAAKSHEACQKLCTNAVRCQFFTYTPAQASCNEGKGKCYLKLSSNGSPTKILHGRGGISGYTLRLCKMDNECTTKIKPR

In general, IC50 refers to the midpoint of a concentration-inhibition curve. Consider `CCC(c1ccc(F)cc1)c1c[nH]c(C(=O)N2CC[C@@]3(C2)OC(=O)Nc2ccc(Cl)c(F)c23)n1` (single isomer, unassigned) [Example 66, (4R)-6-Chloro-5-fluoro-1′-(4-((S or R)-1-(4-fluorophenyl)propyl)-1H-imidazole-2-carbonyl)spiro[benzo[d][1,3]oxazine-4,3′-pyrrolidin]-2(1H)-one], for which the IC50 was determined as 32.5 nM on Human plasma kallikrein and 1360 nM at human factor XIa.

On to `CCC(c1ccc(F)cc1)c1c[nH]c(C(=O)N2CCC[C@@]3(C2)OC(=O)Nc2ccc(Cl)c(F)c23)n1` (single isomer, unassigned) [Example 71, (R)-6-Chloro-5-fluoro-1′-(4-((R or S)-1-(4-fluorophenyl)propyl)-1H-imidazole-2-carbonyl)spiro[benzo[d][1,3]oxazine-4,3′-piperidin]-2(1H)-one], for which the IC50 on Human plasma kallikrein came to 5.5 nM; against human factor XIa it was 995 nM.

With `CCC(c1ccc(F)cc1)c1c[nH]c(C(=O)N2CCC[C@@]3(C2)OC(=O)Nc2ccc(Cl)c(F)c23)n1` (single isomer, unassigned) [Example 72, (R)-6-Chloro-5-fluoro-1′-(4-((S or R)-1-(4-fluorophenyl)propyl)-1H-imidazole-2-carbonyl)spiro[benzo[d][1,3]oxazine-4,3′-piperidin]-2(1H)-one], the values for the IC50 on Human plasma kallikrein and on human factor XIa were 9.3 nM and 1430 nM, respectively.

As to `CCC(c1ccnc(C(F)(F)F)c1)c1c[nH]c(C(=O)N2CCC[C@@]3(C2)OC(=O)Nc2ccc(Cl)c(F)c23)n1` (single isomer, unassigned) [Example 73, (R)-6-Chloro-5-fluoro-1′-(4-((R or S)-1-(2-(trifluoromethyl)pyridin-4-yl)propyl)-1H-imidazole-2-carbonyl)spiro[benzo[d][1,3]oxazine-4,3′-piperidin]-2(1H)-one], the IC50 amounted to 8.2 nM at Human plasma kallikrein and 2050 nM against human factor XIa.

As to `CCC(c1ccnc(C(F)(F)F)c1)c1c[nH]c(C(=O)N2CCC[C@@]3(C2)OC(=O)Nc2ccc(Cl)c(F)c23)n1` (single isomer, unassigned) [Example 74, (R)-6-Chloro-5-fluoro-1′-(4-((S or R)-1-(2-(trifluoromethyl)pyridin-4-yl)propyl)-1H-imidazole-2-carbonyl)spiro[benzo[d][1,3]oxazine-4,3′-piperidin]-2(1H)-one], the IC50 on Human plasma kallikrein was found to be 10.8 nM; at human factor XIa it was 2750 nM.

`COC1(CC(c2ccccc2)c2c[nH]c(C(=O)N3CCC[C@@]4(C3)OC(=O)Nc3ccc(Cl)c(F)c34)n2)CC1` (single isomer, unassigned) [Example 75, (R)-6-Chloro-5-fluoro-1′-(4-((R or S)-2-(1-methoxycyclopropyl)-1-phenylethyl)-1H-imidazole-2-carbonyl)spiro[benzo[d][1,3]oxazine-4,3′-piperidin]-2(1H)-one]: the IC50 at Human plasma kallikrein turned out to be 5.7 nM; against human factor XIa, 322 nM.

For `O=C1Nc2ccc(Cl)c(F)c2[C@@]2(CCCN(C(=O)c3cnc(C(O)c4ccc(F)cc4)[nH]3)C2)O1` (single isomer, unassigned) [Example 78], the values for the IC50 on Human plasma kallikrein and against human factor XIa were 13.7 nM and 3850 nM, respectively.

As for `CC[C@@H](c1ccc(F)cc1)c1ncc(C(=O)N2CCC[C@@]3(C2)OC(=O)Nc2ccc(Cl)c(F)c23)[nH]1` (single isomer, unassigned) [Example 79], the figures for the IC50 on Human plasma kallikrein and against human factor XIa were 1.7 nM and 194 nM, respectively.

As for `CC[C@H](c1ccc(F)cc1)c1ncc(C(=O)N2CCC[C@@]3(C2)OC(=O)Nc2ccc(Cl)c(F)c23)[nH]1` (single isomer, unassigned) [Example 80], the IC50 was found to be 1.9 nM at Human plasma kallikrein and 179 nM against human factor XIa.

For the compound `O=C1Nc2ccc(Cl)c(F)c2[C@@]2(CCCN(C(=O)c3cnc(C(c4ccc(F)cc4)C(F)(F)F)[nH]3)C2)O1` (single isomer, unassigned) [Example 82], the half-maximal inhibitory concentration (IC50) on Human plasma kallikrein is 42.5 nM; against human factor XIa, 7390 nM.

For the compound `O=C1Nc2ccc(Cl)c(F)c2[C@@]2(CCCN(C(=O)c3cnc(C(c4ccc(F)cc4)C(F)(F)F)[nH]3)C2)O1` (single isomer, unassigned) [Example 83], the IC50 on Human plasma kallikrein was 21.3 nM; at human factor XIa, 2700 nM.

As to `CC[C@H](c1ccc(F)cc1)c1nnc(C(=O)N2CCC[C@@]3(C2)OC(=O)Nc2ccc(Cl)c(F)c23)[nH]1` (single isomer, unassigned) [Example 85], the results for the IC50 on Human plasma kallikrein and at human factor XIa were 16.7 nM and 3110 nM, respectively.

As for `CCC(c1ccc(F)c(Cl)c1)c1nnc(C(=O)N2CCC[C@@]3(C2)OC(=O)Nc2ccc(Cl)c(F)c23)[nH]1` (single isomer, unassigned) [Example 96], the figures for the IC50 at Human plasma kallikrein and on human factor XIa were 3.5 nM and 5080 nM, respectively.

Consider `CCC(c1ccc(F)c(Cl)c1)c1nnc(C(=O)N2CCC[C@@]3(C2)OC(=O)Nc2ccc(Cl)c(F)c23)[nH]1` (single isomer, unassigned) [Example 97], for which the IC50 at Human plasma kallikrein was found to be 13.8 nM; against human factor XIa it was 8750 nM.

For the compound `O=C1Nc2ccc(Cl)c(F)c2[C@@]2(CCCN(C(=O)c3nnc(C(CC(F)(F)F)c4ccccc4)[nH]3)C2)O1` (single isomer, unassigned) [Example 98], the IC50 at Human plasma kallikrein was found to be 1.3 nM; on human factor XIa, 362 nM.

As for `O=C1Nc2ccc(Cl)c(F)c2[C@@]2(CCCN(C(=O)c3nnc(C(CC(F)(F)F)c4ccccc4)[nH]3)C2)O1` (single isomer, unassigned) [Example 99], the IC50 at Human plasma kallikrein amounted to 9.7 nM; on human factor XIa it was 1370 nM.

On to `O=C1Nc2ccc(Cl)c(F)c2[C@@]2(CCCN(C(=O)c3nnc(C(CC(F)(F)F)c4cccc(Cl)c4)[nH]3)C2)O1` (single isomer, unassigned) [Example 100], for which the 50% inhibitory concentration (IC50) on Human plasma kallikrein was 2.2 nM; against human factor XIa it was 1450 nM.

As to `O=C1Nc2ccc(Cl)c(F)c2[C@@]2(CCCN(C(=O)c3nnc(C(CC(F)(F)F)c4cccc(Cl)c4)[nH]3)C2)O1` (single isomer, unassigned) [Example 101], the IC50 on Human plasma kallikrein was found to be 10.4 nM; at human factor XIa, 4010 nM.

`CCC(c1ccc(F)cc1)c1nnc(C(=O)N2CC(C)(C)C[C@@]3(C2)OC(=O)Nc2ccc(Cl)c(F)c23)[nH]1` (single isomer, unassigned) [Example 102]: the IC50 on Human plasma kallikrein amounted to 3.6 nM; on human factor XIa, 1130 nM.

As to `CCC(c1ccc(F)cc1)c1nnc(C(=O)N2CC(C)(C)C[C@@]3(C2)OC(=O)Nc2ccc(Cl)c(F)c23)[nH]1` (single isomer, unassigned) [Example 103], the IC50 was determined as 7 nM on Human plasma kallikrein and 1950 nM at human factor XIa.

As to `O=C1Nc2ccc(Cl)c(F)c2[C@@]2(CCCN(C(=O)c3nnc(C(Cc4ccccc4)c4ccccc4)[nH]3)C2)O1` (single isomer, unassigned) [Example 104], the IC50 turned out to be 16.6 nM on Human plasma kallikrein and 2990 nM on human factor XIa.

Consider `O=C1Nc2ccc(Cl)c(F)c2[C@@]2(CCCN(C(=O)c3nnc(C(Cc4ccccc4)c4ccccc4)[nH]3)C2)O1` (single isomer, unassigned) [Example 105], for which the IC50 on Human plasma kallikrein is 17.3 nM; against human factor XIa, 3600 nM.

`O=C1Nc2ccc(Cl)c(F)c2[C@@]2(CCCN(C(=O)c3nnc(C(c4ccccc4)C4CC4)[nH]3)C2)O1` (single isomer, unassigned) [Example 106]: the IC50 came out at 1.6 nM on Human plasma kallikrein and 795 nM at human factor XIa.

As to `O=C1Nc2ccc(Cl)c(F)c2[C@@]2(CCCN(C(=O)c3nnc(C(c4ccccc4)C4CC4)[nH]3)C2)O1` (single isomer, unassigned) [Example 107], the IC50 on Human plasma kallikrein is 11.2 nM; at human factor XIa it was 1910 nM.

For `CCC(c1ccc2c(c1)COC2)c1nnc(C(=O)N2CCC[C@@]3(C2)OC(=O)Nc2ccc(Cl)c(F)c23)[nH]1` (single isomer, unassigned) [Example 111], the IC50 at Human plasma kallikrein is 3.8 nM; at human factor XIa, 2820 nM.

Consider `CCC(c1ccc2c(c1)COC2)c1nnc(C(=O)N2CCC[C@@]3(C2)OC(=O)Nc2ccc(Cl)c(F)c23)[nH]1` (single isomer, unassigned) [Example 112], for which the IC50 at Human plasma kallikrein was 1 nM; against human factor XIa, 1560 nM.

In the case of `CCC(O)(c1ccc(F)cc1)c1n[nH]c(C(=O)N2CCC[C@@]3(C2)OC(=O)Nc2ccc(Cl)c(F)c23)n1` (single isomer, unassigned) [Example 128, (R)-6-Chloro-5-fluoro-1′-(3-(UR or S)-1-(4-fluorophenyl)-1-hydroxypropyl)-1H-1,2,4-triazole-5-carbonyl)spiro[benzo[d][1,3]oxazine-4,3′-piperidin]-2(1H)-one], the values for the IC50 at Human plasma kallikrein and on human factor XIa were 4 nM and 382 nM, respectively.

In the case of `CCC(F)(c1ccc(F)cc1)c1n[nH]c(C(=O)N2CCC[C@@]3(C2)OC(=O)Nc2ccc(Cl)c(F)c23)n1` (single isomer, unassigned) [Example 129, (3′R)-6-Chloro-5-fluoro-1′-(3-(1-fluoro-1-(4-fluorophenyl)propyl)-1H-1,2,4-triazole-5-carbonyl)spiro[benzo[d][1.3]oxazine-4,3′-piperidin]-2(1H)-one], the IC50 turned out to be 8.9 nM at Human plasma kallikrein and 4300 nM at human factor XIa.
